Legend:
[1] = biological target: T1, human progesterone hormone receptor (Homo sapiens, UniProt P06401); test: Receptor binding, inhibition of [3H]-R5020 binding in T-47D cytosol; conditions: cytosol from human T-47D breast cells, 0.4 nM [3H]-R5020, 4 hours at 4° C.; read-out: Relative Binding Affinity hPR IC50
T1 construct: The receptor was obtained in cytosol from human T-47D breast cells and [^3H]-R5020 was used as the radioligand; endogenous in cells; host or cells: human T-47D breast cells (cytosol, 34,000 x g supernatant)
T1 sequence (P06401 1-933): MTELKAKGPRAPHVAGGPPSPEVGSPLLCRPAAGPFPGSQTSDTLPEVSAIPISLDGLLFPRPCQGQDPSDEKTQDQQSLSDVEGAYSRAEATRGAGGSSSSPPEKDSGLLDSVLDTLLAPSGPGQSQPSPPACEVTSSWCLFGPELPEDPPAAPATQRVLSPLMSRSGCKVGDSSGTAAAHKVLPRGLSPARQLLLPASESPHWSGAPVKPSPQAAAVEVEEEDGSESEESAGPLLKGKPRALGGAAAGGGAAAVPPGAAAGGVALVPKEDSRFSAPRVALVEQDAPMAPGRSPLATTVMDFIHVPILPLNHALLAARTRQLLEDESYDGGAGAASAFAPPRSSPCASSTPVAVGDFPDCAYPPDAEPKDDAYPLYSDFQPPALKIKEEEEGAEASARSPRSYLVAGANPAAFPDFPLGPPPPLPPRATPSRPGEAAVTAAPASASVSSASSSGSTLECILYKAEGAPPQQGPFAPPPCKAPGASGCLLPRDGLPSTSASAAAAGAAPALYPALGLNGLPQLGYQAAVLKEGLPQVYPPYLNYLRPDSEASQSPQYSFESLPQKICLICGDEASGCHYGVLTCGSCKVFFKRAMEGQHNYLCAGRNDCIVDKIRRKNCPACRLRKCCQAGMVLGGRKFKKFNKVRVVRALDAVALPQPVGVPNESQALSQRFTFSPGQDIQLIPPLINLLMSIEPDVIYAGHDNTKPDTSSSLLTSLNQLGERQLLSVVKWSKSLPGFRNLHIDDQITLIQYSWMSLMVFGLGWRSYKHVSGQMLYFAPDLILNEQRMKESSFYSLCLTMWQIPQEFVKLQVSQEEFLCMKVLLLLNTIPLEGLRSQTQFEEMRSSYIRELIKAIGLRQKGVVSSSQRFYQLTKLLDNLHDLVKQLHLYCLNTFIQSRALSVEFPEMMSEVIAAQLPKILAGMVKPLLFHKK
Protocol: The receptor was obtained in cytosol from human T-47D breast cells and [^3H]-R5020 was used as the radioligand. T47D cells (1 billion/ml) were homogenized in TEDG buffer (10 mM Tris, 1.5 mM EDTA, 1 mM dithiothreitol, 1 mM sodium molybdate, and 10% glycerol) using a Dounce pestle A, and the homogenate was centrifuged at 34,000×g for 1 hour. The supernatant was stored at −80° C. An aliquot of receptor preparation was combined with test compound, 0.4 nM [^3H]-R5020, and TEDG buffer to a final volume of 150 μL and incubated for 4 hours at 4° C. in microtiter plates. At the end of incubation 40 μL 40% polyethylene glycol and 15 μL 1% human gamma globulin was added to the incubate and the contents of each well were harvested onto double thick B filter mats (Wallac LKB) using a TomTec harvester. A film of Meltilux scintillant wax was applied to the dried filter mats and the mats were counted in a scintillation counter to determine inhibition of [^3H]-R5020 binding. Data are expressed as IC50 values, i.e., the concentration of compound that inhibits radioligand binding by 50%.

[2] = system: rabbits; test: McGinty test (progestational/agonist activity, McPhail score); format: in vivo; design: McPhail Index, McGinty Assay (Agonist): scale not given here; conditions: rabbit; for McPhail Index, McGinty Assay (Agonist): test compound alone
Text: (§1) Results were scored according to McPhail (McPhail, J. Physiol., 83: 146 (1934)). These are standard procedures well-known to those skilled in the art. The results of these assays are shown in Tables 2 (agonist activity) and 3 (antagonist activity). […] Some compounds were extremely potent in this regard.

[3] = system: rabbits; test: Anti-McGinty test (antiprogestational/antagonist activity, test compound plus progesterone, McPhail score); format: in vivo; design: McPhail Index, Anti-McGinty Assay (Antagonist): scale not given here; conditions: rabbit; for McPhail Index, Anti-McGinty Assay (Antagonist): test compound plus progesterone; for Blocking the action of progesterone in the anti-McGinty assay: dose of only 0.3 μg
Text: as §1

[4] = system: immature female rabbits; test: Anti-estrogenic activity, uterine weight in estradiol-treated immature female rabbits; format: in vivo, rabbit; conditions: ± S.E., no estradiol 216.7±37.2 mg

For `CC1CCC2(CCC3C4CCC5=CC(=O)CCC5=C4C(c4ccc(N(C)C)cc4)CC32C)N1O` (stereo not drawn) [11β-[4-(N,N-Dimethylamino)phenyl]-1′-hydroxy-5′-methyl-spiro[estra-4,9-dien-17β,2′-pyrrolidine]-3-one], the IC50 [1] was 5.2 nM, the “McPhail Index, McGinty Assay (Agonist)” value ([2]; dose 0.3 micrograms) was 0 ± 0 and the “McPhail Index, McGinty Assay (Agonist)” value ([2]; dose 3 micrograms) was 0 ± 0. The “McPhail Index, McGinty Assay (Agonist)” value ([2]; dose 30 micrograms) was 0 ± 0, the “McPhail Index, Anti-McGinty Assay (Antagonist)” value (from here on “McPhail Index … (Antagonist)”) ([3]; dose 0.3 micrograms) was 2.1 ± 0.3 and the “McPhail Index … (Antagonist)” value ([3]; dose 3 micrograms) was 2.4 ± 0.4. For the same compound, the “McPhail Index … (Antagonist)” value ([3]; dose 30 micrograms) was 0.7 ± 0.4.
With `CN(C)c1ccc(C2CC3(C)C(CCC34CCCN4O)C3CCC4=CC(=O)CCC4=C23)cc1` (stereo not drawn) [11β-[4-(N,N-Dimethylamino)phenyl]-1′-hydroxy-spiro[estra4,9-dien-17β,2′-pyrrolidine]-3-one] the IC50 [1] was 3.5 nM, the “McPhail Index, McGinty Assay (Agonist)” value ([2]; dose 0.3 micrograms) was 0 ± 0 and the “McPhail Index, McGinty Assay (Agonist)” value ([2]; dose 3 micrograms) was 0 ± 0. The “McPhail Index, McGinty Assay (Agonist)” value ([2]; dose 30 micrograms) was 0 ± 0, the “McPhail Index … (Antagonist)” value ([3]; dose 0.3 micrograms) was 2.7 ± 0.0 and the “McPhail Index … (Antagonist)” value ([3]; dose 3 micrograms) was 2.3 ± 0.5. The “McPhail Index … (Antagonist)” value ([3]; dose 30 micrograms) was 0.07 ± 0.07.
For `CC#C[C@]1(NC=O)CC[C@H]2[C@@H]3CCC4=CC(=O)CCC4=C3[C@@H](c3ccc(N(C)C)cc3)C[C@@]21C` [11β-[4-(N,N-Dimethylamino)phenyl]-17β-(N-formamido)-17α-(1-propynyl)estra-4,9-dien-3-one], the IC50 [1] was 0.7 nM, the “McPhail Index, McGinty Assay (Agonist)” value ([2]; dose 0.3 micrograms) was 0 ± 0 and the “McPhail Index, McGinty Assay (Agonist)” value ([2]; dose 3 micrograms) was 0 ± 0. For the same compound, the “McPhail Index, McGinty Assay (Agonist)” value ([2]; dose 30 micrograms) was 0 ± 0, the “McPhail Index … (Antagonist)” value ([3]; dose 0.3 micrograms) was 0 ± 0 and the “McPhail Index … (Antagonist)” value ([3]; dose 3 micrograms) was 0 ± 0. For the same compound, the “McPhail Index … (Antagonist)” value ([3]; dose 30 micrograms) was 0 ± 0, the “Blocking the action of progesterone in the anti-McGinty assay” value [3] was “completely effective in blocking the action of progesterone” and the Uterine weight ([4]; compound orally at 10 mg/day concurrently with 5 μg of estradiol per day) was 716 ± 96.6 mg.
For `CC#CC1(N(C)O)CCC2C3CCC4=CC(=O)CCC4=C3C(c3ccc(N(C)C)cc3)CC21C` (stereo not drawn) [11β-[4-(N,N-Dimethylamino)phenyl]-17β-(N-hydroxy-N-methylamino)-17α-(1-propynyl)estra-4,9-dien-3-one], the IC50 [1] was 7.1 nM, the “McPhail Index, McGinty Assay (Agonist)” value ([2]; dose 0.3 micrograms) was 0 ± 0 and the “McPhail Index, McGinty Assay (Agonist)” value ([2]; dose 3 micrograms) was 0 ± 0. For the same compound, the “McPhail Index, McGinty Assay (Agonist)” value ([2]; dose 30 micrograms) was 0 ± 0, the “McPhail Index … (Antagonist)” value ([3]; dose 0.3 micrograms) was 2.0 ± 0.2 and the “McPhail Index … (Antagonist)” value ([3]; dose 3 micrograms) was 0 ± 0. The “McPhail Index … (Antagonist)” value ([3]; dose 30 micrograms) was 0 ± 0.
With `CC#C[C@]1(NO)CC[C@H]2[C@@H]3CCC4=CC(=O)CCC4=C3[C@@H](c3ccc(N(C)C)cc3)C[C@@]21C` [11β-[4-(N,N-Dimethylamino)phenyl]-17β-(N-hydroxylamino)-17α-(1-propynyl)estra-4,9-dien-3-one] the IC50 [1] was 14.3 nM, the “Progestational (agonist) activity in the McGinty assay” value ([2]; at high doses) was “some progestational (agonist) activity” and the “McPhail Index, McGinty Assay (Agonist)” value ([2]; dose 0.3 micrograms) was 0 ± 0. The “McPhail Index, McGinty Assay (Agonist)” value ([2]; dose 3 micrograms) was 0 ± 0, the “McPhail Index, McGinty Assay (Agonist)” value ([2]; dose 30 micrograms) was 0.7 ± 0.0 and the “Progestational (agonist) activity in the anti-McGinty assay” value ([3]; at the highest dose) was “some progestational (agonist) activity”. The “McPhail Index … (Antagonist)” value ([3]; dose 0.3 micrograms) was 0 ± 0, the “McPhail Index … (Antagonist)” value ([3]; dose 3 micrograms) was 0 ± 0 and the “McPhail Index … (Antagonist)” value ([3]; dose 30 micrograms) was 2.5 ± 0.4. For the same compound, the “Blocking the action of progesterone in the anti-McGinty assay” value [3] was “completely effective in blocking the action of progesterone”.
`CC#CC1(NC(C)=O)CCC2C3CCC4=CC(=O)CCC4=C3C(c3ccc(N(C)C)cc3)CC21C` (stereo not drawn) [17β-(N-Acetamido)-11β-[4-(N,N-dimethylamino)phenyl]-17α-(1-propynyl)estra-4,9-dien-3-one] was tested, and the IC50 [1] was 1.3 nM, the “McPhail Index, McGinty Assay (Agonist)” value ([2]; dose 0.3 micrograms) was 0 ± 0 and the “McPhail Index, McGinty Assay (Agonist)” value ([2]; dose 3 micrograms) was 0 ± 0. For the same compound, the “McPhail Index, McGinty Assay (Agonist)” value ([2]; dose 30 micrograms) was 0 ± 0, the “McPhail Index … (Antagonist)” value ([3]; dose 0.3 micrograms) was 1.8 ± 0.3 and the “McPhail Index … (Antagonist)” value ([3]; dose 3 micrograms) was 0.1 ± 0.1. For the same compound, the “McPhail Index … (Antagonist)” value ([3]; dose 30 micrograms) was 0 ± 0.
With `CC#C[C@]1(N)CC[C@H]2[C@@H]3CCC4=CC(=O)CCC4=C3[C@@H](c3ccc(N(C)C)cc3)C[C@@]21C` [17β-Amino-11β-[4-(N,N-dimethylamino)phenyl]-17α-(1-propynyl)estra-4,9-dien-3-one] the IC50 [1] was 8.3 nM, the “McPhail Index, McGinty Assay (Agonist)” value ([2]; dose 0.3 micrograms) was 0 ± 0 and the “McPhail Index, McGinty Assay (Agonist)” value ([2]; dose 3 micrograms) was 0 ± 0. The “McPhail Index, McGinty Assay (Agonist)” value ([2]; dose 30 micrograms) was 0 ± 0, the “McPhail Index … (Antagonist)” value ([3]; dose 0.3 micrograms) was 1.6 ± 0.3 and the “McPhail Index … (Antagonist)” value ([3]; dose 3 micrograms) was 0.2 ± 0.1. The “McPhail Index … (Antagonist)” value ([3]; dose 30 micrograms) was 0 ± 0.
`C[C@]12CC[C@@H]3c4ccc(O)cc4CC[C@H]3[C@@H]1CC[C@@H]2O` [estradiol, reference compound] gave a Uterine weight ([4]; estradiol alone, 5 μg per day) of 1337 ± 105 mg.
